Data: the NIST ThermoML archive (doi:10.1021/acs.jced.7b01011)
± gives the expanded uncertainty stated by the source.

Assays:
[1] = Crystal; DTA
[2] = Molar enthalpy of transition or fusion; settings: Crystal; DSC

Normal melting temperature [1]: 108.00 ± 1.1 °C
Molar enthalpy of transition or fusion [2]: 6.16 ± 0.232 kcal/mol
SMILES: Cc1ccc(NC(=O)/C(=C/Cl)Sc2ccccc2)cc1 [(Z)-3-chloro-2-phenylthio-N-(p-tolyl)acrylamide]
